# In patent publication US20240424131A1, “TARGETING NANOPARTICLES FOR THERAPY” (University of Pittsburgh - Of the Commonwealth System of …, priority 2021, published 2024):
# System: CT26 cells
# Assay: Transwell co-culture transcytosis, HUVECs and CT26 cells
# Assay type: cell-based
# Conditions: NPs applied to HUVECs in upper chamber
smiles,measurement,value
O=C(N/N=C/c1ccc(O)c(O)c1)c1cc2ccccc2cc1O [dynasore],transfection of CT26 cells by Cy5.5-siRNA NPs in presence of endocytosis inhibitor,significantly inhibited
